Values after ≈ are worked out from the molar mass of the structure shown. Active and inactive are the calls of the source. No cut-off for these calls is given here.
Experiments:
HeLa = test: Cytotoxicity against human HeLa S3 cells; assay type: functional, cell-based
HL-60 = test: Cytotoxicity against human HL60 cells; assay type: functional, cell-based
Jurkat = test: Cytotoxicity against human Jurkat cells; assay type: functional, cell-based
Pyricularia grisea [1] = test: Inhibition of hydrophobic gel bonded surface-induced appressorium formation in germinating conidia of Magnaporthe grisea P1; assay type: functional, organism-based
Pyricularia grisea [2] = test: Inhibition of 1,16-hexadecanediol-induced appressorium formation in germinating conidia of Magnaporthe grisea P1; assay type: functional, organism-based
Pyricularia grisea [3] = test: Inhibition of chlorophenylthio-cAMP-induced appressorium formation in germinating conidia of Magnaporthe grisea P1; assay type: functional, organism-based
[4] = Cytotoxicity against mouse B16-F1cells; assay type: functional, cell-based; conditions: B16-F1

Structure (SMILES) | IC50 (HeLa) [µg/mL] | IC50 (HL-60) [µg/mL] | IC50 (Jurkat) [µg/mL] | Activity (Pyricularia grisea [1]) | Activity (Pyricularia grisea [2]) | IC50 (Pyricularia grisea [3]) [µg/mL] | IC50 [4] [µg/mL]
C/C1=C\[C@@H](O)C/C(C)=C/[C@H](O)[C@H]([C@@H](C)CO)CC1 | > 100 | 10 (≈ 39.3 µM) | 20 (≈ 78.6 µM) | inactive | inactive | 50 (≈ 197 µM) | > 100
C=C[C@@](C)(O)CC/C=C(\C)CC[C@H](O)C(C)(C)O | 75 (≈ 293 µM) | 5 (≈ 19.5 µM) | 20 (≈ 78 µM) | inactive | inactive | 10 (≈ 39 µM) | 75 (≈ 293 µM)

Reference: ChEMBL document CHEMBL1155593, “Bioactive sesquiterpenes from the basidiomycete Resupinatus leightonii” (J Nat Prod, 2000)
